We go through one molecule from patent publication US9309224B2 (Deciphera Pharmaceuticals, LLC, priority 2013, dated 2016).

Assay [1] relates to U251-luc human glioma carcinoma. The assay is described as follows: U251 intra-cerebro-ventricular implant in mice with fractionated head radiation. Type of assay: in vivo, mouse. The conditions noted are these: 30 mg/kg twice daily, 10 days post irradiation, compared to vehicle treated control. The procedure: U251 Intra-Cerebro-Ventricular Implant in Mice To evaluate in vivo anti-cancer activity compounds of formula I in combination with fractionated, localized head radiation, an orthotopic U251-luc (Luc) human glioma carcinoma model in female outbred nu/nu mice was employed. Briefly, U251 cells were obtained from the ATCC and altered to be luciferase expressing. They were grown in RPMI 1640 Media supplemented with 10% FBS and 1% PSG. The growth environment was maintained in an incubator with a 5% CO2 atmosphere at 37° C. Female Harlan Nude mice (Hsd:AthymicNude-Fox1nu) 8-9 weeks old were used in this study. Test animals were implanted intracranially with U251-luc (LucmCherry) cells. Briefly, animals were injected subcutaneously with 5 mg/kg carprofen and anesthetized using 2% isoflurane in air. The animals were then secured in a stereotaxic frame (ASIinstruments, Inc.) and a hole drilled 2 mm right lateral, 1 mm anterior to the coronal suture. The cell suspension (stored on wet ice) was mixed thoroughly and drawn up into a 50 μL syringe. The syringe needle was centered over the burr hole and lowered 3 mm into the brain and retracted 1 mm to form a “reservoir” for the deposition of the cell suspension. […] Images were analyzed using Living Image (Xenogen, Alameda, Calif.) software. The BLI signal in the brain was calculated with a fixed area ROI to estimate the tumor burden. […]

The test system of assay [2] is c-FMS. Nature of the assay: cFOS mRNA production in a c-FMS mouse spleen pharmacodynamic model. It counts as in vivo. To be noted: out to 8 h post 30 mg/kg single oral dose, read-out: inhibition of cFOS mRNA levels. The protocol:
Analysis of cFOS mRNA Production in a c-FMS Mouse Spleen Pharmacodynamic Model To examine the in vivo modulation of FMS activity by compounds of formula I, spleen samples from female DBA/1 mice were collected and analyzed for M-CSF stimulated production of cFOS mRNA. Briefly, six to seven week old female Taconic DBA/1BO J Bom Tac mice were treated with a single oral dose (by gavage) of either vehicle or compound. Plasma and spleen samples are collected from four mice at each timepoint 2, 4, 6, 8, 12, 18, and 24 hours after dosing. Fifteen minutes prior to euthanasia, all mice were injected IV with 1 μg (100 μL fixed volume) of M-CSF. M-CSF, Recombinant Mouse Macrophage Colony Stimulating Factor (36.4 kDa homodimer, ≧98% purity) was obtained from Gibco. All procedures carried out in this experiment were conducted in compliance with all the laws, regulations and guidelines of the National Institutes of Health (NIH). cFOS mRNA levels in spleen extracts were determined using a quantitative reverse transcriptase PCR kit from Life Technologies. Plasma levels of FMS inhibitors were determined by mass spectrometer analysis. The degree of FMS inhibition was correlative to the amount of decrease observed in cFOS mRNA levels in the spleen samples of treated animals compared to vehicle.

For `CN1CCN(C(=O)Nc2cc(Oc3ccc(NC(=O)NC(=O)C(C)(C)C)nc3)ccn2)CC1` [Example 45, 4-methyl-N-(4-((6-(3-pivaloylureido)pyridin-3-yl)oxy)pyridin-2-yl)piperazine-1-carboxamide], the “reduction in tumor re-growth” value in assay [1] turned out to be 80%. The inhibition in vivo at 30 mg/kg in assay [2] is no less than 50%.
